Data reported in paper PMC6472001, “Phenolic Compounds from Humulus lupulus as Natural Antimicrobial Products: New Weapons in the Fight against Methicillin Resistant Staphylococcus aureus, Leishmania mexicana and Trypanosoma brucei Strains” (Molecules, 2019).
Read-outs that look alike come from different tables or passages of the source.

Assays:
Candida albicans 13203 = assay: First screening, agar dilution MIC; assay type: cell-based
[1] = system: Candida albicans ATCC 10231; assay: First screening, agar dilution MIC; assay type: cell-based
S. aureus T25.10 (MRSA) = assay: Broth microdilution MIC; assay type: cell-based, Staphylococcus aureus; conditions: for MIC: S. aureus T25.10 (MRSA)
Experimental: (§1) The protocol employed was inspired by Abedini et al. with some modifications. Products were solubilized in DMSO and serially diluted two-fold in MH medium. A bacterial suspension at 10^5 CFU/mL was added to obtain a final volume of 200 µL. Final phenolic product concentrations in wells ranged from 625 to 2.4 µg/mL (exception for lupulone for which dilutions were continued until 0.3 µg/mL). […] Plates were incubated overnight with stirring (60 rpm) at 37 °C.

S. aureus T26A4 (MSSA) = assay: Broth microdilution MIC; assay type: cell-based, Staphylococcus aureus; conditions: for MIC: S. aureus T26A4 (MSSA)
Experimental: as §1

S. aureus 08143 (MSSA) = assay: Broth microdilution MIC; assay type: cell-based, Staphylococcus aureus; conditions: for MIC: S. aureus 08143 (MSSA)
Experimental: as §1

S. aureus T28.1 (MRSA) [2] = assay: Broth microdilution MIC; assay type: cell-based, Staphylococcus aureus
Experimental: as §1
For the following experiments, the MRSA strain T28.1, isolated from a pathological sample of osteitis, was used. It was previously characterized by DNA biochips, which allowed highlighting some β-lactamases and the SCC-mec genes confirming the methicillin resistance. Moreover, genes for enzymes and proteins involved in the capsule biosynthesis (capH5, capJ5 and capK5) and several intracellular adhesion proteins implicated in biofilm formation (icaA, icaC and icaD) were present.

[3] = system: Leishmania mexicana mexicana (Lmm); assay: Antiparasitic activity, broth microdilution; assay type: cell-based
Experimental: (§2) Tbb were cultivated in HMI9 medium containing 10% heat-inactivated foetal bovine serum (FBS) (Sigma-Aldrich), […] L-cysteine and […] beta-mercaptoethanol at 37 °C (CO2 5%). Lmm (MHOM/BZ/84/BEL46) were cultivated in SDM-79 medium (Gibco) supplemented with 15% heat-inactivated FBS (Sigma-Aldrich) and 5 mg/L hemin at 28 °C (CO2 5%). Antiparasitic bioassays were performed as described by Bero et al.. Suramin (SUR) and pentamidine (PEN) were used as positive controls respectively. The hops compounds (xanthohumol, desmethylxanthohumol, humulone, lupulone) concentration that inhibits 50% of the cell viability (IC50) was determined using GraphPad Prism, version 5.01 (GraphPad Software, San Diego, CA, USA).

S. aureus T28.1 (MRSA) [4] = assay: Synergies by checkerboard method; assay type: cell-based, Staphylococcus aureus
Experimental: Checkerboard method was used to assess the potential co-action of xanthohumol, desmethylxanthohumol and lupulone between them or with some antibiotics. Antibiotics were previously selected on the basis of a first screening using E-tests (BioMérieux®, France). […] Each test was performed on a 96-well microplate using an 8-by-8 well configuration. […] Wells were filled with 100 µL of MH medium, 10 µL of each compound (DMSO for products and water for antibiotics) and 80 µL of a 10^5 CFU/mL bacterial suspension with appropriate solvent controls. […] The MIC of each product alone was checked at each test. Microplates were incubated overnight at 60 rpm and 37 °C.
After visual analysis, the combination with the highest activity was determined by the calculation of the fractional inhibitory concentration (FIC) index, interpreted as synergistic (FIC < 0.5), additive (0.5 ≤ FIC ≤ 1), indifferent (1 < FIC ≤ 4) or antagonist (FIC > 4).
FIC index=MIC A with B/MIC A alone+ MIC B with A/MIC B alone

[5] = system: WI-38 cells (non-cancer lung fibroblasts); assay: Cytotoxicity / antiproliferative effect; assay type: cell-based, human
Experimental: (§3) Several human cell lines were used for the cytotoxic bioassays: non-cancer lung fibroblasts (WI-38), hepatocellular carcinoma (Hep-G2), osteosarcoma (MG-63) and the mouse monocyte macrophage J774. Cells were seeded into wells of a 96-well microplate in a Gibco™ Dulbecco’s modified eagles medium (DMEM), except for MG-63 which were cultivated in a minimum essential medium (MEM) (ThermoFisher Scientific, Illkirch-Graffenstaden, France). Both media were enriched with 10% FBS (ThermoFisher Scientific, France) and some antibiotics (mixture penicillin/streptomycin 100 UI/mL, Sigma Aldrich). After one or two days at 37 °C (5% of CO2), wells were emptied by suction. Cells were then treated with hops compounds (xanthohumol, desmethylxanthohumol, humulone, lupulone) in DMSO at 0.2% in the culture medium, to obtain a final volume of 100 µL in wells (negative control: 0.2% DMSO). Camptothecin was used as a positive control. After 48 to 72 h exposure, culture medium was replaced by 10% of Alamar blue or 3-(4,5-dimethylthiazol-2-yl)-2,5-diphenyltetrazolium bromide (MTT) in the medium (ThermoFisher Scientific®, Illkirch, France) and plates were incubated the time necessary to the reaction. Results were measured respectively by fluorescence (excitation 530 nm and emission 590 nm) or by optical density at 550 nm. The IC50 of each product was determined using GraphPad Prism (version 5.01).

[6] = system: Hep-G2 cells (hepatocellular carcinoma); assay: Cytotoxicity / antiproliferative effect; assay type: cell-based, human; conditions: Homo sapiens
Experimental: as §3

[7] = system: J774 cells (monocyte macrophage); assay: Cytotoxicity / antiproliferative effect; assay type: cell-based, mouse
Experimental: as §3

[8] = system: MG-63 cells (osteosarcoma); assay: cells; assay type: cell-based, human; conditions: Homo sapiens, MG-63
Experimental: as §3

[9] = system: Trypanosoma brucei brucei (Tbb); assay: Antiparasitic activity, broth microdilution; assay type: cell-based
Experimental: as §2

[10] = Staphylococcus aureus, read-out: MIC
[11] = Staphylococcus aureus, value in parentheses, read-out: MIC
[12] = Staphylococcus aureus, S. aureus T28.1 (MRSA), read-out: MIC
[13] = Staphylococcus aureus, S. aureus T28.1 (MRSA), value in parentheses, read-out: MIC
[14] = value in parentheses, read-out: IC50 (converted)
[15] = value in parentheses, read-out: MIC

For C[C@@H]1[C@H](O)[C@@H](C)/C=C/C=C/C=C/C=C/C=C/C=C/C=C/[C@H](O[C@@H]2O[C@H](C)[C@@H](O)[C@H](N)[C@@H]2O)C[C@@H]2O[C@](O)(C[C@@H](O)C[C@@H](O)[C@H](O)CC[C@@H](O)C[C@@H](O)CC(=O)O[C@H]1C)C[C@H](O)[C@H]2C(=O)O [AMB, Amphotericin B], the “Susceptibility to AMB” value (Candida albicans 13203) was “S (Amphotericin B (AMB) S ≤ 1)” and the “Susceptibility to AMB” value [1] was “S (Amphotericin B (AMB) S ≤ 1)”.

CC(C)=CCC1=C(O)C(CC=C(C)C)(CC=C(C)C)C(=O)C(C(=O)C(C)C)=C1O [Colupulone, colupulone] showed an MIC (S. aureus T25.10 (MRSA); [10]) of 78 µg/mL, an MIC (S. aureus T25.10 (MRSA); [11]) of 195 µM and an MIC (S. aureus T26A4 (MSSA); [10]) of 39 µg/mL. For the same compound, the MIC (S. aureus T26A4 (MSSA); [11]) was 97.5 µM, the MIC (S. aureus 08143 (MSSA); [10]) was 78 µg/mL and the MIC (S. aureus 08143 (MSSA); [11]) was 195 µM. It also gave an MIC (S. aureus T28.1 (MRSA) [2]; [12]) of 39 µg/mL and an MIC (S. aureus T28.1 (MRSA) [2]; [13]) of 97.5 µM.

Work on N=C(N)c1ccc(OCCCCCOc2ccc(C(=N)N)cc2)cc1 [PEN, pentamidine] yielded an IC50 ([3]; Leishmania mexicana, read-out: IC50 (converted)) of 0.07 µg/mL and an IC50 ([3]; Leishmania mexicana, value in parentheses, read-out: IC50 (converted)) of 0.21 µM.

With OC(Cn1cncn1)(Cn1cncn1)c1ccc(F)cc1F [FLC, Fluconazole] the “Susceptibility to FLC” value (Candida albicans 13203) was “R (R > 4)” and the “Susceptibility to FLC” value [1] was “S (Fluconazole (FLC) S ≤ 2)”.

For CC(C)=CCC1=C(O)C(O)(CC=C(C)C)C(=O)C(C(=O)C(C)C)=C1O (stereo in doubt) [Cohumulone, cohumulone], the MIC (S. aureus T25.10 (MRSA); [10]) was 313 µg/mL, the MIC (S. aureus T25.10 (MRSA); [11]) was 899 µM and the MIC (S. aureus T26A4 (MSSA); [10]) was 313 µg/mL. The MIC (S. aureus T26A4 (MSSA); [11]) was 899 µM, the MIC (S. aureus 08143 (MSSA); [10]) was 313 µg/mL and the MIC (S. aureus 08143 (MSSA); [11]) was 899 µM. It also gave an MIC (S. aureus T28.1 (MRSA) [2]; [12]) of 156 µg/mL and an MIC (S. aureus T28.1 (MRSA) [2]; [13]) of 448 µM.

C[C@@H](c1ncncc1F)[C@](O)(Cn1cncn1)c1ccc(F)cc1F [VRC, Voriconazole] was tested, and the “Susceptibility to VRC” value (Candida albicans 13203) was “R (R > 0.12)” and the “Susceptibility to VRC” value [1] was “S (Voriconazole (VRC) S ≤ 0.12)”.

In the case of CO[C@H]1/C=C/O[C@@]2(C)Oc3c(C)c(O)c4c(O)c(c(/C=N/N5CCN(C)CC5)c(O)c4c3C2=O)NC(=O)/C(C)=C\C=C\[C@H](C)[C@H](O)[C@@H](C)[C@@H](O)[C@@H](C)[C@H](OC(C)=O)[C@@H]1C [rifampicin], the “times more active when combined” value (S. aureus T28.1 (MRSA) [4]; rifampicin combined with xanthohumol) is reported as 8 times.

Compound CC[C@@]1(O)C(=O)OCc2c1cc1n(c2=O)Cc2cc3ccccc3nc2-1 [CAMP, camptothecin] has an IC50 ([5]; Homo sapiens, read-out: IC50 ± SD) of 0.06 µg/mL, an IC50 ([5]; Homo sapiens, value in parentheses, read-out: IC50 (converted)) of 0.17 µM and an IC50 ([6]; HepG2, read-out: IC50 ± SD) of 0.4 ± 0.2 µg/mL. The IC50 ([6]; HepG2, value in parentheses, read-out: IC50 (converted)) was 1.15 µM, the IC50 ([7]; Mus musculus, read-out: IC50 ± SD) was 0.01 µg/mL and the IC50 ([7]; Mus musculus, value in parentheses, read-out: IC50 (converted)) was 0.03 µM. It also gave an IC50 ([8]; read-out: IC50 ± SD) of 4.4 ± 1.5 µg/mL and an IC50 [8, 14] of 12.6 µM.

Compound Cc1ccc(C(=O)Nc2ccc(S(=O)(=O)O)c3cc(S(=O)(=O)O)cc(S(=O)(=O)O)c23)cc1NC(=O)c1cccc(NC(=O)Nc2cccc(C(=O)Nc3cc(C(=O)Nc4ccc(S(=O)(=O)O)c5cc(S(=O)(=O)O)cc(S(=O)(=O)O)c45)ccc3C)c2)c1 [SUR, suramin] has an IC50 ([9]; Trypanosoma brucei, read-out: IC50 (converted)) of 0.05 µg/mL and an IC50 ([9]; Trypanosoma brucei, value in parentheses, read-out: IC50 (converted)) of 0.038 µM.

Work on COc1cc(O)c(CC=C(C)C)c2c1C(=O)CC(c1ccc(O)cc1)O2 (stereo not shown) [Isoxanthohumol, isoxanthohumol] yielded an MIC (S. aureus T28.1 (MRSA) [2]; Staphylococcus aureus, strain MRSA T28.1, read-out: MIC) of 39 µg/mL.

Cc1onc(-c2ccccc2)c1C(=O)N[C@@H]1C(=O)N2[C@@H]1SC(C)(C)[C@@H]2C(=O)O [OXA, oxacillin] was tested, and the “Susceptibility to OXA” value (S. aureus T25.10 (MRSA); S. aureus T25.10) was “R (R ≥ 4 µg/mL)”, the “Susceptibility to OXA” value (S. aureus T26A4 (MSSA); S. aureus T26A4) was “S (S ≤ 2 µg/mL)” and the “Susceptibility to OXA” value (S. aureus 08143 (MSSA); S. aureus 08143) was “S (S ≤ 2 µg/mL)”. The “MIC for oxacillin in combination” value (S. aureus T28.1 (MRSA) [4]; in the presence of lupulone) was < 2 µg/mL, the “MIC for oxacillin in combination” value (S. aureus T28.1 (MRSA) [4]; in the presence of xanthohumol) was < 2 µg/mL and the “Susceptibility to OXA” value (S. aureus T28.1 (MRSA) [2]; S. aureus T28.1) was “R (R ≥ 4 µg/mL)”.

humulone was tested, and the MIC (S. aureus T25.10 (MRSA)) was 156 µg/mL, the MIC (S. aureus T25.10 (MRSA); [15]) was 430.9 µM and the MIC (S. aureus T26A4 (MSSA)) was 156 µg/mL. The MIC (S. aureus T26A4 (MSSA); [15]) was 430.9 µM, the MIC (S. aureus 08143 (MSSA)) was 156 µg/mL and the MIC (S. aureus 08143 (MSSA); [15]) was 430.9 µM. The MIC (S. aureus T28.1 (MRSA) [2]; S. aureus T28.1 (MRSA)) was 78 µg/mL, the MIC (S. aureus T28.1 (MRSA) [2]; S. aureus T28.1 (MRSA), value in parentheses, read-out: MIC) was 215.5 µM and the “IC50 ± SD” value [5] was 10.5 ± 2.3 µg/mL. For the same compound, the IC50 [5, 14] was 29 µM, the IC50 [9] was 10.9 ± 0.8 µg/mL and the IC50 [9, 14] was 30.1 µM. For the same compound, the IC50 [3] was 28.8 ± 1.5 µg/mL, the IC50 [3, 14] was 77.9 µM and the “IC50 ± SD” value [7] was 11.5 ± 0.3 µg/mL. It also gave an IC50 [7, 14] of 31.7 µM.
